# PMC4545774, “Identification of inhibitors that target dual-specificity phosphatase 5 provide new insights into the binding requirements for the two phosphate pockets” (BMC Biochemistry, 2015)
# Where “and” joins values, the source holds several entries; their conditions need not be identical. Identical values can stand only once. Entries after “also recorded” stand apart in the source; their conditions may differ. Like-named read-outs stand apart in the source and are kept apart here.
# Assays:
# DUSP5 PD(WT) [1] = target: T1, DUSP5 PD(WT) (Homo sapiens, UniProt Q16690); experiment: p-nitrophenol phosphate (pNPP) phosphatase activity / IC50 assay; format: biochemical; settings: for effect of detergent on inhibition: presence vs absence of 0.5 % Triton X-100
# T1 construct: hexa-histidine (N); made in house; host or cells: E. coli BL21(DE3)
# T1 sequence (Q16690 178-319 limits assumed): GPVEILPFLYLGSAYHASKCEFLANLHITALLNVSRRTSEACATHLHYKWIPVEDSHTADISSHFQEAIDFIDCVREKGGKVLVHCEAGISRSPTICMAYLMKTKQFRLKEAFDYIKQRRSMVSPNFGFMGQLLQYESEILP
# Excerpt: To measure enzymatic activity of the DUSP5 PD and the inhibitory capacity of selected molecules, an in vitro phosphatase assay was developed based on previous studies. In this assay, DUSP5 PD will dephosphorylate the substrate p-nitrophenol phosphate (pNPP, Sigma Aldrich), yielding p-nitrophenolate, which absorbs at 405 nm with an extinction coefficient of 18,000 M^−1 cm^−1.
# Thus, an increase in absorbance at 405 nm corresponds to the turnover of pNPP to p-nitrophenolate. The assay was initially optimized in 1 mL quartz cuvettes, then was subsequently optimized for and validated in a 96-well plate format. All IC50 values were obtained using the 96-well plate assay format (see below). The assay buffer contained 100 mM Tris, 100 mM sodium chloride, 5 mM magnesium chloride, and 1 mM DTT at pH 7.5. The pNPP substrate was prepared as a 50 mM stock by dissolving the solid substrate in assay buffer. The DUSP5 PD and pNPP were assayed initially in a cuvette (1 mL total volume) and initial velocities were fitted to the Michaelis-Menten equation:1 v=VmaxS/Km+S where v is the initial velocity, Vmax is the maximum velocity, Km is the Michaelis constant, and [S] is the concentration of pNPP. Data were fitted using a nonlinear least squares fit to eq. 1, with GraphPad Prism 6 software.
# For the 96-well plate validation assay, sodium orthovanadate (Sigma Aldrich) was utilized as a positive control for inhibition at a final concentration of 10 μM, to completely block DUSP5(WT) enzymatic activity. All plate assays were performed in standard 96-well clear bottom plates (Thermo Scientific Nunc) with a total assay volume of 200 μL, using a SpectraMax M5 Microplate Reader (Molecular Devices). The plate validation assay was performed with replicate columns of positive control wells, negative control wells and blank wells. Blank columns contained only buffer and pNPP. Negative control (uninhibited) contained buffer, pNPP, and DUSP5 PD(WT); and, positive control contained the same components, but also contained 10 μM sodium orthovanadate. The plate was then shaken and allowed to equilibrate in the spectrophotometer at 25 °C for 30 min. After incubation, 4 μL of a 50 μM enzyme stock was dispensed into appropriate wells utilizing a single-channel pipette. This produced a final enzyme concentration of 1 μM. Before a read was taken, the plate was shaken for five seconds. […] The endpoint reading was subsequently taken at 90 min after initiation of reaction.
# IC50 values were obtained using the assay described above, in 96 well plates. The maximum inhibitor concentration screened in any plate was […] and the minimum screened concentration was 1 μM. The IC50 plate was designed so that the first column of wells served as blanks, with wells containing only buffer and substrate. The second column of wells functioned as the plate negative control, with each well containing buffer, substrate and enzyme. The remaining wells in the plate contained buffer, substrate, enzyme, and varying amounts of inhibitor, with inhibitor concentration increasing from left to right across the plate. Data points were collected at a minimum in triplicate, and inhibitor concentrations were chosen to provide data equally spread on a logarithmic scale. The composition of buffer and the concentrations of substrate and enzyme utilized were identical to those in the plate validation assay. After initiation and shaking, a ten-minute kinetic read was taken.
# For each plate assayed, the slope values for all negative control wells were averaged and the measured value considered representative of full enzymatic activity.
# [2] = Nephelometry (aggregation in solution); format: physicochemical; settings: 10-100 μM, pH 7.5 buffer; for aggregation: nephelometry
# Method: Nephelometry is a technique for measuring the relative aggregation of particles in solution, based on the light-scattering properties of molecular aggregates. We performed nephelometry to explore the ability of the chemicals studied herein to form aggregates, which can lead to artifactual inhibition effects. Compounds were tested for aggregation in 96-well plates using a buffer containing 100 mM Tris base, 100 mM sodium chloride, and 5 mM magnesium chloride at pH 7.5. Each compound analyzed in these experiments contained concentrations of compound ranging from 10-100 μM, recorded in quadruplet. Each plate was analyzed at two separate gain values of 52 and 72. Data were collected using a BMG NEPHELOstar Plus, equipped with a 635 nm laser.
# DUSP5 PD(WT) [3] = target: T1, DUSP5 PD(WT); experiment: p-nitrophenol phosphate (pNPP) phosphatase activity / IC50 assay; format: biochemical; settings: 1 mL cuvettes, pNPP substrate
# DUSP5 PD(C263S) = system: T2, DUSP5 PD(C263S); experiment: NMR binding assay (2D 1H-15N HSQC); design: species or system human; settings: 250 μM RR505 or 500 μM CSD^3_2320, pH 6.8
# T2 construct: a C-terminal phosphatase domain (PD); hexa-histidine (N); made in house; host or cells: E. coli BL21(DE3)
# Method: NMR samples of DUSP5 PD(C263S) were prepared for 2D ^1H-^15N HSQC (heteronuclear single quantum coherence) spectral titration studies. The ^15 N-labeled DUSP5 PD(C263S) protein was concentrated using an Amicon Ultra-4 centrifugal device (Millipore) to 600 μM. NMR samples were prepared with the following conditions for RR505: 250 μM RR505, 250 μM DUSP5 PD(C263S), 10 % D2O, 50 mM potassium phosphate, 100 mM KCl, and 2 mM DTT at pH 6.8 and for CSD^3-2320: 0 or 500 μM CSD^3-2320, 500 μM DUSP5 PD(C263S), 10 % D2O, 50 mM potassium phosphate, 100 mM KCl, and 2 mM DTT at pH 6.8. NMR experiments were performed on a 500 MHz Varian NMR System using a triple resonance probe with z-axis gradients at 25 °C.
# full length DUSP5 = target: T3, full length DUSP5 (Homo sapiens, UniProt Q16690); experiment: ERK dephosphorylation assay (full-length DUSP5, pERK2 substrate, Western blot); format: biochemical; settings: full length DUSP5, pERK2 as substrate
# T3 construct: in the more biologically relevant assay with full length DUSP5 and using pERK2 as substrate; made in house
# T3 sequence (Q16690 1-384): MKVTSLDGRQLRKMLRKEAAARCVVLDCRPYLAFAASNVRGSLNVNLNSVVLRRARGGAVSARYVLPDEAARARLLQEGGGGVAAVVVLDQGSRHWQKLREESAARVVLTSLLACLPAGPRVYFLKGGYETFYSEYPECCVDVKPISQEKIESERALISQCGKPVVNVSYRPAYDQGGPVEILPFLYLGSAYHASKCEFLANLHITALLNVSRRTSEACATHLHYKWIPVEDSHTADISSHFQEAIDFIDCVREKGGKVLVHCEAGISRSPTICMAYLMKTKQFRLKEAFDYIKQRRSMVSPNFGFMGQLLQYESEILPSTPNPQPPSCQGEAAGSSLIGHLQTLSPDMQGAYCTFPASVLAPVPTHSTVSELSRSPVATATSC
# Method: For this assay, 10 ng of GST-tagged recombinant phosphorylated ERK2 (R&D Systems, 1230-KS) was incubated with and without the indicated DUSP5 proteins (0.5 nM final concentration) for 15 min at room temperature, with or without the indicated drugs. The reactions were halted with 2x Laemmli sample buffer and subjected to SDS-PAGE. The proteins were transferred to polyvinylidene difluoride (PVDF) and immunoblotted using antibodies to pERK (Cell Signaling Tech., #9106) and total ERK, which includes both phosphorylated and unphosphorylated ERK1 and ERK2 (Cell Signaling Tech., #9102). Bound antibodies were visualized using horseradish peroxidase-linked anti-mouse IgG (Cell Signaling Tech, #7076S) and anti-rabbit IgG (Cell Signaling Tech, #7074S), respectively, and ECL reagents (Pierce, #34708) according to the manufacturer’s protocol. For calculating IC50 values, gel bands were imaged by chemiluminescence with either film or digital image capture by a FluorChem HD2 imager (Alpha Innotech). Density of each band was quantified with ImageJ software by using the gel analysis tool. Relative values of phosphorylated ERK present for each drug concentration treatment compared to pERK only controls were calculated. These relative values were then used to obtain IC50 values with GraphPad Prism 6 software. […]
# panel of 21 phosphatases = experiment: Screen against a panel of 21 phosphatases; format: biochemical; settings: at up to 30 μM
# [4] = pNPP as substrate, Michaelis-Menten fit, 1 mL cuvette
smiles,measurement,setting,value
"O=[N+]([O-])c1ccc(OP(=O)(O)O)cc1 [pNPP, p-nitrophenol phosphate]",Km,DUSP5 PD(WT) [1]; [4],7.6 ± 0.4 mM
same,Vmax,DUSP5 PD(WT) [1]; [4],1.35 ± 0.02 × 10^−3 μmol/min
"O=S(=O)([O-])c1cc(S(=O)(=O)[O-])c2[nH]c3c(S(=O)(=O)[O-])cc(S(=O)(=O)[O-])cc3c2c1.[Na+].[Na+].[Na+].[Na+] [RR506, Carbazole-1,3,6,8-tetrasulfonic acid, tetrasodium salt]",IC50,"DUSP5 PD(WT) [1]; pNPP substrate, 96-well plate, Triton X-100 at 0.1 %, read-out: IC50 from enzyme assay",16 ± 2 mM
same,aggregation,[2],do not appear to form aggregates
[Na+].[Na+].[Na+].[O]=[V]([O-])([O-])[O-] [sodium orthovanadate],IC50,DUSP5 PD(WT) [3],88 ± 8 nM
O=S(=O)(O)c1cc(O)c2c(S(=O)(=O)O)cccc2c1 [CSD^3_2320],binding by HSQC cross-peak shifts,DUSP5 PD(C263S),direct binding
same,binding by HSQC cross-peak shifts,DUSP5 PD(C263S); listed as CSD3_2320,binding
same,IC50,"DUSP5 PD(WT) [1]; phosphatase domain alone, pNPP as substrate, read-out: IC50",32.7 mM and 33 mM
same,IC50,full length DUSP5; read-out: IC50 (mean),33 µM
same,IC50,full length DUSP5; read-out: IC50 (range),8 to 96 µM
same,aggregation,[2],does not aggregate; also recorded: no propensity to aggregate; also recorded: no tendency to aggregate
same,aggregation,[2]; listed as CSD3_2320,no tendency
same,inhibition of panel phosphatases,panel of 21 phosphatases,not inhibit any of them significantly
"O=S(=O)(O)c1ccc2c(S(=O)(=O)O)cc(S(=O)(=O)O)cc2c1 [NTS, Naphthalene trisulfonate]",effect of detergent on inhibition,DUSP5 PD(WT) [1],no detergent-effect
same,aggregation,[2],do not appear to form aggregates
Cc1ccc(C(=O)Nc2ccc(S(=O)(=O)O)c3cc(S(=O)(=O)O)cc(S(=O)(=O)O)c23)cc1NC(=O)c1cccc(NC(=O)Nc2cccc(C(=O)Nc3cc(C(=O)Nc4ccc(S(=O)(=O)O)c5cc(S(=O)(=O)O)cc(S(=O)(=O)O)c45)ccc3C)c2)c1 [Suramin],inhibition at 1 µM,"DUSP5 PD(WT) [1]; 1 μM suramin, 5 mM pNPP, read-out: plateau level of inhibition with increasing Triton X-100",30%
same,Ki,"DUSP5 PD(WT) [1]; competitive versus pNPP, absence of Triton X-100",24.6 µM and 25 µM
same,effect of detergent on inhibition,DUSP5 PD(WT) [1],loss and loss of some inhibitory capability
same,effect of detergent on inhibition,DUSP5 PD(WT) [1]; listed as suramin,detergent decreases suramin inhibition
same,mode of inhibition,DUSP5 PD(WT) [1]; varied pNPP and inhibitor,competitive inhibitor; also recorded: competitive inhibition
same,concentration at which aggregates start forming,[2],around 25 μM
same,aggregation,[2],forms aggregates in vitro
